Assays:
Settings in all cases: incubation time: 72 h
HCC1143 [1] = assay: drug sensitivity score (DSS), CellTiter-Glo (DSS (AUC-based score)); higher = stronger drug effect (viability inhibition or cytotoxicity); extreme values may be limits of the assay
Outline: (§1)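 Each compound occupied 5 concentrations in 10-fold steps over its own 10,000-fold range in 384-well plates, into which breast cancer cell lines were seeded as 20 µl suspension. Following 72 h of incubation, CellTox Green fluorescence (485/520 nm) was measured, and CellTiter-Glo luminescence was measured after 10 min at room temperature. Plates were individually normalised to 0.1 % DMSO and a positive kill control. From the area under the fitted dose-response curve, a drug sensitivity score was calculated.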

MDA-MB-436 = assay: as above
Outline: as §1

HCC1599 = assay: as above
Outline: as §1

HCC1937 = assay: as above
Outline: as §1

HDQ-P1 = assay: as above
Outline: as §1

SK-BR-3 = assay: as above
Outline: as §1

MFM-223 = assay: as above
Outline: as §1

CAL-51 = assay: as above
Outline: as §1

CAL-148 = assay: as above
Outline: as §1

Hs578T = assay: as above
Outline: as §1

MDA-MB-453 = assay: as above
Outline: as §1

CAL-85-1 = assay: as above
Outline: as §1

DU-4475 = assay: as above
Outline: as §1

CAL-120 = assay: as above
Outline: as §1

BT-474 = assay: as above
Outline: as §1

MCF-10A = assay: as above
Outline: as §1

MDA-MB-231 = assay: as above
Outline: as §1

MDA-MB-468 = assay: as above
Outline: as §1

BT-549 = assay: as above
Outline: as §1

HCC1143 [2] = assay: normalised viability (% of control), CellTiter-Blue; higher = more viable cells (about 100 = DMSO control)
Protocol: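 DSRT, CellTiter-Blue viability, 72 h incubation. Signal is normalised to DMSO and benzethonium chloride controls. Value is the normalised response at dose 3.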

Row | SMILES | drug sensitivity score (HCC1143 [1]) | drug sensitivity score (MDA-MB-436) | drug sensitivity score (HCC1599) | drug sensitivity score (HCC1937) | drug sensitivity score (HDQ-P1) | drug sensitivity score (SK-BR-3) | drug sensitivity score (MFM-223) | drug sensitivity score (CAL-51) | drug sensitivity score (CAL-148) | drug sensitivity score (Hs578T) | drug sensitivity score (MDA-MB-453) | drug sensitivity score (CAL-85-1) | drug sensitivity score (DU-4475) | drug sensitivity score (CAL-120) | drug sensitivity score (BT-474) | drug sensitivity score (MCF-10A) | drug sensitivity score (MDA-MB-231) | drug sensitivity score (MDA-MB-468) | drug sensitivity score (BT-549) | normalised viability (HCC1143 [2]; 100 nM) [%] | normalised viability (HCC1143 [2]; 10 nM) [%] | normalised viability (HCC1143 [2]; 400 nM) [%]
1 | COc1cc([C@@H]2c3cc4c(cc3[C@@H](O[C@@H]3O[C@@H]5CO[C@@H](C)O[C@H]5[C@H](O)[C@H]3O)[C@H]3COC(=O)[C@H]23)OCO4)cc(OC)c1O [Etoposide] | 4.37 | 7.41 | 9.75 | 0 | 0.733 | 9.09 | 0 | 8.68 | 7.19 | 2.84 | 0 | 0.96 | 9.9 | 2.02 | 3.57 | 0 | 0.846 | 5.45 | 5.14 | 84 |  | 
2 | C[C@]12CC[C@@H]3c4ccc(O)cc4C[C@@H](CCCCCCCCC[S+]([O-])CCCC(F)(F)C(F)(F)F)[C@H]3[C@@H]1CC[C@@H]2O (stereo not given in full) [Fulvestrant] | 0 | 0 | 0 | 0 | 0 | 0 | 0 | 0 | 0 | 0 | 0 | 0 | 0 | 0 | 0 | 0 | 0 | 0 | 0 | 77.8 |  | 
3 | O=P1(NCCCl)OCCCN1CCCl (stereo not given) [Ifosfamide] | 0 | 0 | 0 | 0 | 0 | 0 | 0 | 0 | 0 | 0 | 0 | 0 | 0 | 0 | 0.0144 | 0 | 0 | 0 | 0 | 83.4 |  | 
4 | CC(C)Cn1cnc2c(N)nc3ccccc3c21 [Imiquimod] | 0 | 0 | 0 | 0 | 0 | 0 | 0 | 0 | 0 | 0 | 0 | 0 | 0 | 0 | 0 | 0 | 0 | 0 | 0 | 120 |  | 
5 | CC1(C)NC(=O)N(c2ccc([N+](=O)[O-])c(C(F)(F)F)c2)C1=O [Nilutamide] | 0 | 0 | 0 | 0 | 0 | 0 | 0 | 2.72 | 0 | 0 | 0 | 0 | 0 | 0 | 0 | 0 | 0 | 0 | 0 | 96.2 |  | 
6 | Cn1c(Nc2ccc(C(F)(F)F)cc2)nc2cc(Oc3ccnc(-c4ncc(C(F)(F)F)[nH]4)c3)ccc21 [RAF265] | 0 | 2.94 | 0 | 1.88 | 5.82 | 0 | 2.07 | 0 | 0 | 2.49 | 0 | 1.63 | 1.18 | 3.6 | 0.538 | 0 | 0 | 4.79 | 1.66 |  | 77.8 | 
7 | CNCc1ccc(-c2[nH]c3cc(F)cc4c3c2CCNC4=O)cc1 [Rucaparib] | 0 | 1.14 | 0 | 0 | 0 | 0 | 0 | 0 | 1.62 | 0 | 0 | 0 | 0 | 0 | 1.39 | 0 | 0 | 2.43 | 0.12 | 110 |  | 
8 | N[C@@H](CSC(c1ccccc1)(c1ccccc1)c1ccccc1)C(=O)O [S-trityl-L-cysteine] | 0 | 0 | 0 | 0 | 0 | 0 | 0 | 0 | 0 | 0 | 0 | 0 | 0 | 0 | 0 | 0 | 0 | 0 | 0 |  |  | 122
9 | CN(N=O)C(=O)N[C@@H](C=O)[C@@H](O)[C@H](O)[C@H](O)CO [Streptozocin] | 0 | 0 | 0 | 0 | 0 | 0 | 0 | 0 | 0 | 0 | 0 | 0 | 0 | 0 | 0 | 0 | 0 | 0 | 0 | 101 |  | 
10 | O=C1CCC(N2C(=O)c3ccccc3C2=O)C(=O)N1 (stereo not given) [Thalidomide] | 0 | 0 | 0 | 0 | 0 | 0 | 0 | 0 | 0 | 0 | 0 | 0 | 0 | 0 | 0 | 0 | 0 | 0 | 0 | 112 |  | 
11 | CN[C@@H]1C[C@H]2O[C@@](C)([C@@H]1OC)n1c3ccccc3c3c4c(c5c6ccccc6n2c5c31)C(=O)N[C@H]4O [UCN-01] | 19.7 | 20.9 | 27.9 | 18.8 | 18.8 | 24 | 16.6 | 23.9 | 8.79 | 27.5 | 17.3 | 22.6 | 19.9 | 24.9 | 26 | 27.8 | 28.1 | 23.7 | 21.6 | 50.2 |  | 
